# Reference: patent US10485800B2, “Mixed lineage kinase inhibitors for HIV/AIDS therapies” (UNIVERSITY OF ROCHESTER, priority 2012, dated 2019)
# Where a name gives a salt, the structure may show the parent alone.
# Target: MLK3 (Homo sapiens (Human), UniProt Q16584)
# Experiment: Radiometric filter plate MLK3 assay
# Assay type: biochemical
# Conditions: 2 μM cold ATP (Km), 1 μM inactive MKK7b, twenty minute incubation; read-out: MK3 IC50
# Method: After a twenty minute incubation, the reactions were washed through filter plates and read on a scintillation counter. Results are shown in Table 9 below, in which +++ indicates ≤0.1 μM, ++ indicates >0.1 μM and ≤1 μM, and + indicates >1 μM.
# MLK3, sequence (Q16584 whole entry): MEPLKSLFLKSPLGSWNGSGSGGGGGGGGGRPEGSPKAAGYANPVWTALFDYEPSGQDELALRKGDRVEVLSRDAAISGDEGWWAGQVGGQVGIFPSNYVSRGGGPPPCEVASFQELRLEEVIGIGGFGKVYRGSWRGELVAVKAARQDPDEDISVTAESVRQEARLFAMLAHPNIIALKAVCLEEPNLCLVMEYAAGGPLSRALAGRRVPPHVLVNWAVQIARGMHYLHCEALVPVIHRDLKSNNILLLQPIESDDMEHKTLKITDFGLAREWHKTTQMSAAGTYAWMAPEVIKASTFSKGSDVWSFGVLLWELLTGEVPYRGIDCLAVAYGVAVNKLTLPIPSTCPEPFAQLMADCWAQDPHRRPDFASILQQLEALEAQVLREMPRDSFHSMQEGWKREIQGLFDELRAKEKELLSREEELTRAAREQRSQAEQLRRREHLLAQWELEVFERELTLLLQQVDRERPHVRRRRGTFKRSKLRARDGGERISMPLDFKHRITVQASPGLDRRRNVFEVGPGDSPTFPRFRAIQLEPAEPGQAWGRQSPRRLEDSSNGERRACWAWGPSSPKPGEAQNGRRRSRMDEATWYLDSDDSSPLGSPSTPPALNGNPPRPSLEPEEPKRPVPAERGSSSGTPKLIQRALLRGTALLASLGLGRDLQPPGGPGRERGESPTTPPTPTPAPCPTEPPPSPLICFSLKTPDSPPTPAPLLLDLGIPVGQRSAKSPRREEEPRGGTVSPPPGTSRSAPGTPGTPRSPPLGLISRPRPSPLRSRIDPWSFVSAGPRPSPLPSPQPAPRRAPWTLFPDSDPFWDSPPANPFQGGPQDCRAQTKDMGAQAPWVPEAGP
row,Compound,IC50 [nM]
1,"CC(C)(C)OC(=O)N1CCN(C(=O)c2cccc(-c3cnc4[nH]cc(-c5ccc(C(N)=O)cc5)c4c3)c2)CC1 [Example 151, 4-{3-[3-(4-carbamoyl-phenyl)-1H-pyrrolo[2,3-b]pyridin-5-yl]-benzoyl}-piperazine-1-carboxylic acid tert-butyl ester]",< 100
2,"CC(=O)N1CCN(Cc2ccc(-c3cnc4[nH]cc(-c5ccc6[nH]ccc6c5)c4c3)cc2)CC1C (stereo not drawn) [Example 188, 1-(4-(4-(3-(1H-indol-5-yl)-1H-pyrrolo[2,3-b]pyridin-5-yl)benzyl)-2-methylpiperazin-1-yl)ethanone]",< 100
3,"CC(=O)N1CCN(C(=O)c2ccc(-c3cnc4[nH]cc(-c5ccc6[nH]ccc6c5)c4c3)cc2)CC1 [Example 146, 1-(4-{4-[3-(1H-indol-5-yl)-1H-pyrrolo[2,3-b]pyridin-5-yl]-benzoyl}-piperazin-1-yl)-ethanone]",< 100
4,"COc1ccc(-c2cnc3[nH]c(=O)n(-c4ccc5[nH]ccc5c4)c3n2)cc1F [Example 49, 6-(3-fluoro-4-methoxyphenyl)-1-(1H-indol-5-yl)-1H-imidazo[4,5-b]pyrazin-2(3H)-one]",> 1000
5,"COc1cc(-c2cnc3[nH]cc(-c4ccc5[nH]ccc5c4)c3n2)ccc1N [Example 38, 4-(7-(1H-indol-5-yl)-5H-pyrrolo[3,2-b]pyrazin-2-yl)-2-methoxyaniline]",< 100
6,CC(C)CC(=O)N1CCN(Cc2ccc(-c3cnc4[nH]cc(-c5ccc6[nH]ccc6c5)c4c3)cc2)CC1 [Example 204],< 100
7,"COc1cc(-c2cnc3[nH]c(=O)n(-c4ccc(N5CCOCC5)nc4)c3n2)cc(OC)c1OC [Example 109, 1-(6-morpholinopyridin-3-yl)-6-(3,4,5-trimethoxyphenyl)-1H-imidazo[4,5-b]pyrazin-2(3H)-one]",> 1000
8,"CC(=O)N1CCN(Cc2ccc(-c3cnc4[nH]cc(-c5ccc(C(N)=O)cc5)c4c3)cc2)CC1 [Example 157, 4-{5-[4-(4-acetyl-piperazin-1-ylmethyl)-phenyl]-1H-pyrrolo[2,3-b]pyridin-3-yl}-benzamide]",< 100
9,"Nc1ncc(-c2cnc3[nH]cc(-c4cnc(N)nc4)c3c2)cn1 [Example 20, 5,5′-(1H-pyrrolo[2,3-b]pyridine-3,5-diyl)dipyrimidin-2-amine]",> 1000
10,"CC(C)(C)OC(=O)N1CCN(Cc2ccc(-c3cnc4[nH]cc(-c5ccc6[nH]ccc6c5)c4c3)cc2)CC1 [Example 144, 4-{4-[3-(1H-indol-5-yl)-1H-pyrrolo[2,3-b]pyridin-5-yl]-benzyl}-piperazine-1-carboxylic acid tert-butyl ester]",< 100
11,"O=C1CN(Cc2ccc(-c3cnc4[nH]cc(-c5ccc6[nH]ccc6c5)c4c3)cc2)CCN1 [Example 142, 4-{4-[3-(1H-indol-5-yl)-1H-pyrrolo[2,3-b]pyridin-5-yl]-benzyl}-piperazin-2-one]",< 100
12,"O=c1[nH]c2ncc(-c3ccncc3)nc2n1-c1ccc2[nH]ncc2c1 [Example 88, 1-(1H-indazol-5-yl)-6-(pyridin-4-yl)-1H-imidazo[4,5-b]pyrazin-2(3H)-one]",> 1000
13,"COc1cc(-c2cnc3[nH]c(=O)n(C4Cc5ccccc5C4)c3n2)cc(OC)c1OC [Example 110, 1-(2,3-dihydro-1H-inden-2-yl)-6-(3,4,5-trimethoxyphenyl)-1H-imidazo[4,5-b]pyrazin-2(3H)-one]",< 100
14,"CC(=O)Nc1ccc(-c2cnc3[nH]cc(-c4ccc5[nH]ccc5c4)c3c2)cc1 [Example 3, N-(4-(3-(1H-indol-5-yl)-1H-pyrrolo[2,3-b]pyridin-5-yl)phenyl)acetamide]",< 100
15,"COc1ccc(-c2cnc3[nH]cc(-c4ccc(C(N)=O)cc4)c3c2)cc1OC [Example 26, 4-(5-(3,4-dimethoxyphenyl)-1H-pyrrolo[2,3-b]pyridin-3-yl)benzamide]",< 100
16,"COc1cc(-c2cnc3[nH]c(=O)n(-c4ccc5[nH]ccc5c4)c3n2)ccc1O [Example 55, 6-(4-hydroxy-3-methoxyphenyl)-1-(1H-indol-5-yl)-1H-imidazo[4,5-b]pyrazin-2(3H)-one]",< 100
17,"Nc1ccc(-c2cnc3[nH]cc(-c4ccc5[nH]ccc5c4)c3c2)cc1 [Example 8, 4-(3-(1H-indol-5-yl)-1H-pyrrolo[2,3-b]pyridin-5-yl)aniline]",< 100
18,"COc1cc(OC)c(-c2cnc3[nH]c(=O)n(C4CCCC4)c3n2)c(OC)c1 [Example 94, 1-cyclopentyl-6-(2,4,6-trimethoxyphenyl)-1H-imidazo[4,5-b]pyrazin-2(3H)-one]",> 1000
19,"COc1cc(-c2cnc3c(c2)C(Cc2ccc(C(N)=O)cc2)C(=O)N3)cc(OC)c1OC (stereo not drawn) [Example 138, 4-[2-oxo-5-(3,4,5-trimethoxy-phenyl)-2,3-dihydro-1H-pyrrolo[2,3-b]pyridin-3-ylmethyl]-benzamide]",> 1000
20,"NC(=O)c1ccc(-c2c[nH]c3ncc(-c4ccc(C(=O)N5CCNCC5)cc4)cc23)cc1 [Example 149, 4-{5-[4-(piperazine-1-carbonyl)-phenyl]-1H-pyrrolo[2,3-b]pyridin-3-yl}-benzamide, hydrochloride salt]",< 100
21,"CN1CCN(c2cc(-c3cnc4[nH]c(=O)n(-c5ccc6[nH]ccc6c5)c4n3)ccn2)CC1 [Example 66, 1-(1H-indol-5-yl)-6-(2-(4-methylpiperazin-1-yl)pyridin-4-yl)-1H-imidazo[4,5-b]pyrazin-2(3H)-one]",> 1000
22,"COc1ccc(-c2cnc3[nH]c(=O)n(-c4ccc5[nH]ncc5c4)c3n2)cc1OC [Example 87, 6-(3,4-dimethoxyphenyl)-1-(1H-indazol-5-yl)-1H-imidazo[4,5-b]pyrazin-2(3H)-one]",> 1000
23,"COc1cc(-c2cnc3[nH]c(=O)n(-c4ccc5[nH]cnc5c4)c3n2)cc(OC)c1OC [Example 102, 1-(1H-benzo[d]imidazol-5-yl)-6-(3,4,5-trimethoxyphenyl)-1H-imidazo[4,5-b]pyrazin-2(3H)-one]",< 100
24,"Cc1cc(C)cc(-c2cnc3[nH]c(=O)n(-c4ccc5cn[nH]c5c4)c3n2)c1 [Example 95, 6-(3,5-dimethylphenyl)-1-(1H-indazol-6-yl)-1H-imidazo[4,5-b]pyrazin-2(3H)-one]",> 1000
25,"CN(C)Cc1ccc(-c2cnc3[nH]cc(-c4ccc5[nH]ccc5c4)c3c2)cc1 [Example 33, 1-(4-(3-(1H-indol-5-yl)-1H-pyrrolo[2,3-b]pyridin-5-yl)phenyl)-N,N-dimethylmethanamine]",< 100
26,"COc1cc(-c2cnc3[nH]c(=O)n(-c4ccc5[nH]ccc5c4)c3n2)ccc1N [Example 60, 6-(4-amino-3-methoxyphenyl)-1-(1H-indol-5-yl)-1H-imidazo[4,5-b]pyrazin-2(3H)-one]",< 100

# Same assay, conditions: read-out: MK3 IC50
row,Compound,IC50 [nM]
1,"FC(F)(F)CN1CCN(Cc2ccc(-c3cnc4[nH]cc(-c5ccc6[nH]ccc6c5)c4c3)cc2)CC1 [Example 207, 3-(1H-indol-5-yl)-5-(4-((4-(2,2,2-trifluoroethyl)piperazin-1-yl)methyl)phenyl)-1H-pyrrolo[2,3-b]pyridine]",100 to 1000
2,CN1CCN(Cc2ccc(-c3cnc4[nH]cc(-c5ccc6[nH]ncc6c5)c4c3)cc2)CC1 [Example 173],100 to 1000
3,Cc1c[nH]c2ccc(-c3c[nH]c4ncc(-c5ccc(CN6CCN(C)CC6)cc5)cc34)cc12 [Example 176],100 to 1000
4,CN1CCN(Cc2ccc(-c3cnc4[nH]cc(-c5ccc6c(c5)CC(=O)N6)c4c3)cc2)CC1 [Example 174],100 to 1000
